Test results reported in BindingDB's records for doi:10.3109/14756366.2012.663363 (Sun Yat-Sen University, 2013).

Columns and labels:
Acetylcholinesterase = Acetylcholinesterase (Electrophorus electricus, UniProt O42275); assay: In Vitro AChE and BuChE Inhibition Assays; conditions: pH 8
Description: (§1) Enzyme solutions were prepared to give 2 units/mL in 2 mL aliquots. […] The substrate was added to the assay medium containing enzyme, buffer and DTNB with inhibitor after 15 min of incubation time.

[1] = molecular target: Carboxylic ester hydrolase (Equus caballus, UniProt Q9N1N9); assay: In Vitro AChE and BuChE Inhibition Assays; conditions: pH 8
Description: as §1

Acetylcholinesterase, sequence (O42275 whole entry): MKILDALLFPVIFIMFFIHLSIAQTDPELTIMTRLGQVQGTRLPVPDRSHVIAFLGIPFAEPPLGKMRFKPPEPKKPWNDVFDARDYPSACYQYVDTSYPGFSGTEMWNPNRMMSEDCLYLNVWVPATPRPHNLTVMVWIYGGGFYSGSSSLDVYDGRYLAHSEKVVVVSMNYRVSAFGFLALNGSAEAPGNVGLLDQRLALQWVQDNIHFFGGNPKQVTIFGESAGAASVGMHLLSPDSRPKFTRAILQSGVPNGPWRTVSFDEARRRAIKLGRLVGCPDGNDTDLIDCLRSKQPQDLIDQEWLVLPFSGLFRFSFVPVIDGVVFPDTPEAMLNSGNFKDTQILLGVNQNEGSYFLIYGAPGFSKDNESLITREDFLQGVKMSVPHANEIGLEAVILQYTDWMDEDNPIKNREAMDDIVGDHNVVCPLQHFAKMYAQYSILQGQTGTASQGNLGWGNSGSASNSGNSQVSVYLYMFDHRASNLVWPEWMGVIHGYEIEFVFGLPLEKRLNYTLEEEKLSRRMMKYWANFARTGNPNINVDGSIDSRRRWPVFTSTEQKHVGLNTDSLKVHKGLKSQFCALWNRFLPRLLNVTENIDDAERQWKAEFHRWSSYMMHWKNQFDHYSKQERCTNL
Carboxylic ester hydrolase, sequence (Q9N1N9 whole entry): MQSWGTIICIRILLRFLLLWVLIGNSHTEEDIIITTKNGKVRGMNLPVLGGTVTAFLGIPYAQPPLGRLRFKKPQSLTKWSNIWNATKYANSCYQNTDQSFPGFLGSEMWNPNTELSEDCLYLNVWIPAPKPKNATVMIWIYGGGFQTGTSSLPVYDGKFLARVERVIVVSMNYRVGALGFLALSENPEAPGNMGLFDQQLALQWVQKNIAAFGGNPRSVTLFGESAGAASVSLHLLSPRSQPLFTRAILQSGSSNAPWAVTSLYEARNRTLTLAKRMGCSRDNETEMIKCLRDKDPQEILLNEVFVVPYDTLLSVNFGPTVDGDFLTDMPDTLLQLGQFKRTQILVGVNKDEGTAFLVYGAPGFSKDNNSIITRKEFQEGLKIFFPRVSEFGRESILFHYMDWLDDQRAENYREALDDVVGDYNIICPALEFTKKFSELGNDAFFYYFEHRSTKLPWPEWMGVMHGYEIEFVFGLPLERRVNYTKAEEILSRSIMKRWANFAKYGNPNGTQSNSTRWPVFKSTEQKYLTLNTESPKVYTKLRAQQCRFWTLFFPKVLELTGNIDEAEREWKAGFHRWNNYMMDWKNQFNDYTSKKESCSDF

SMILES	IC50 (Acetylcholinesterase)	IC50 [1]
O=c1[nH]c(-c2cc3ccccc3[nH]2)nc2ccccc12 [2-(2-Indolyl-)-4(3H)-quinazolines (2IQ)]	> 10 µM	> 10 µM
CCN(CC)CCCNc1nc(-c2cc3ccccc3[nH]2)nc2ccccc12 [N1-(2-(1H-indol-2-yl)quinazolin-4-yl)-N3,N3-diethylpropane-1,3-diamine (9b)]	> 10 µM	> 10 µM
CN(C)CCCNc1nc(-c2cc3ccccc3[nH]2)nc2ccccc12 [N1-(2-(1H-indol-2-yl)quinazolin-4-yl)-N3,N3-dimethylpropane-1,3-diamine (9a)]	> 10 µM	> 10 µM
CN1CCN(CC(=O)Nc2ccc3nc(-c4cc5ccccc5[nH]4)[nH]c(=O)c3c2)CC1 [N-(2-(1H-indol-2-yl)-4-oxo-3,4-dihydroquinazolin-6-yl)-2-(4-methylpiperazin-1-yl)acetamide (3e)]	> 10 µM	> 10 µM
CCN(CC)CC(=O)Nc1ccc2nc(-c3cc4ccccc4[nH]3)[nH]c(=O)c2c1 [N-(2-(1H-indol-2-yl)-4-oxo-3,4-dihydroquinazolin-6-yl)-2-(diethylamino)acetamide (3a)]	0.503 µM	14.8 µM
O=C(CN1CCCCC1)Nc1ccc2nc(-c3cc4ccccc4[nH]3)[nH]c(=O)c2c1 [N-(2-(1H-indol-2-yl)-4-oxo-3,4-dihydroquinazolin-6-yl)-2-(piperidin-1-yl)acetamide (3c)]	0.148 µM	10.2 µM
O=C(CN1CCCC1)Nc1ccc2nc(-c3cc4ccccc4[nH]3)[nH]c(=O)c2c1 [N-(2-(1H-indol-2-yl)-4-oxo-3,4-dihydroquinazolin-6-yl)-2-(pyrrolidin-1-yl)acetamide (3b)]	0.327 µM	3.1 µM
O=C(CN1CCOCC1)Nc1ccc2nc(-c3cc4ccccc4[nH]3)[nH]c(=O)c2c1 [N-(2-(1H-indol-2-yl)-4-oxo-3,4-dihydroquinazolin-6-yl)-2-morpholinoacetamide (3d)]	2.02 µM	32.2 µM
CN1CCN(CCC(=O)Nc2ccc3nc(-c4cc5ccccc5[nH]4)[nH]c(=O)c3c2)CC1 [N-(2-(1H-indol-2-yl)-4-oxo-3,4-dihydroquinazolin-6-yl)-3-(4-methylpiperazin-1-yl)propanamide (3j)]	> 10 µM	> 10 µM
CCN(CC)CCC(=O)Nc1ccc2nc(-c3cc4ccccc4[nH]3)[nH]c(=O)c2c1 [N-(2-(1H-indol-2-yl)-4-oxo-3,4-dihydroquinazolin-6-yl)-3-(diethylamino)propanamide (3f)]	0.276 µM	2.43 µM
O=C(CCN1CCCCC1)Nc1ccc2nc(-c3cc4ccccc4[nH]3)[nH]c(=O)c2c1 [N-(2-(1H-indol-2-yl)-4-oxo-3,4-dihydroquinazolin-6-yl)-3-(piperidin-1-yl)propanamide (3h)]	0.021 µM	7.32 µM
O=C(CCN1CCCC1)Nc1ccc2nc(-c3cc4ccccc4[nH]3)[nH]c(=O)c2c1 [N-(2-(1H-indol-2-yl)-4-oxo-3,4-dihydroquinazolin-6-yl)-3-(pyrrolidin-1-yl)propanamide (3g)]	0.1 µM	0.403 µM
O=C(CCN1CCOCC1)Nc1ccc2nc(-c3cc4ccccc4[nH]3)[nH]c(=O)c2c1 [N-(2-(1H-indol-2-yl)-4-oxo-3,4-dihydroquinazolin-6-yl)-3-morpholinopropanamide (3i)]	1.26 µM	51.6 µM
